# From patent US20100016343A1 (WYETH, priority 2008, published 2010)
# Like-named read-outs stand apart in the source and are kept apart here.
# Columns and labels:
# [1] = target: T1, alpha3 (ganglionic) nACh receptors (Homo sapiens, UniProt P30926+P32297); experiment: calcium-monitoring FLIPR selectivity assay using the native SH-SY5Y cell line; type: cell-based; details: read-out: Alpha 3 EC50
# T1 construct: using the native SH-SY5Y cell line; endogenous in cells; host or cells: SH-SY5Y
# From the text: Functional FLIPR assays were developed in order to test the selectivity of compounds against the alpha1 (muscular) and alpha3 (ganglionic) nACh receptors and the structurally related 5-HT3 receptor. […] In order to test selectivity against the 5-HT3 receptor, a recombinant cell line was constructed expressing the human 5-HT3A receptor in HEK 293 cells and a calcium-monitoring FLIPR assay employed.
# CYP2C9 = CYP2C9 (Homo sapiens, UniProt P11712); experiment: CYP2C9 % inhibition; type: in vitro ADME
# CYP2D6 = CYP2D6 (Homo sapiens, UniProt P10635); experiment: CYP2D6 % inhibition; type: in vitro ADME
# rat-alpha7-nAChR = target: T2, rat-alpha7-nAChR (Rattus norvegicus, UniProt Q05941); experiment: functional FLIPR assay, alpha7 nAChR stably expressed in GH4C1 cells; type: cell-based
# T2 construct: expressed in transfected cells
# From the text: Rat GH4C1 cells were then transfected with the rat receptor, cloned and analyzed for functional alpha7 nicotinic receptor expression employing a FLIPR assay to measure changes in intracellular calcium concentrations.
# The FLIPR system allows the measurements of real time Ca^2+-concentration changes in living cells using a Ca^2+ sensitive fluorescence dye (such as Fluo4). This instrument enables the screening for agonists and antagonists for alpha 7 nAChR channels stably expressed in GH4C1 cells.
# GH4C1 cells stably transfected with rat-alpha7-nAChR (see above) were used. These cells are poorly adherent and therefore pretreatment of flasks and plates with poly-D-lysine was carried out. Cells are grown in 150 cm^2 T-flasks, filled with 30 ml of medium at 37° C. and 5% CO2.
# EC50 and IC50 values were calculated using the IDBS XLfit4.1 software package employing a sigmoidal concentration-response (variable slope) equation:
# Y=Bottom+((Top−Bottom)/(1+((EC50/X)̂HillSlope))
# Certain compounds of the present disclosure were tested using the functional FLIPR primary screening assay employing the stable recombinant GH4C1 cell line expressing the alpha7 nAChR.
# CYP3A4 = CYP3A4 (Homo sapiens, UniProt P08684); experiment: CYP3A4 % inhibition; type: in vitro ADME
# [2] = GH4C1 cell line expressing the alpha7 nAChR, concentration-response curves, read-out: Alpha 7 EC50
# Sequence of CYP2C9 (P11712 whole entry, species assumed): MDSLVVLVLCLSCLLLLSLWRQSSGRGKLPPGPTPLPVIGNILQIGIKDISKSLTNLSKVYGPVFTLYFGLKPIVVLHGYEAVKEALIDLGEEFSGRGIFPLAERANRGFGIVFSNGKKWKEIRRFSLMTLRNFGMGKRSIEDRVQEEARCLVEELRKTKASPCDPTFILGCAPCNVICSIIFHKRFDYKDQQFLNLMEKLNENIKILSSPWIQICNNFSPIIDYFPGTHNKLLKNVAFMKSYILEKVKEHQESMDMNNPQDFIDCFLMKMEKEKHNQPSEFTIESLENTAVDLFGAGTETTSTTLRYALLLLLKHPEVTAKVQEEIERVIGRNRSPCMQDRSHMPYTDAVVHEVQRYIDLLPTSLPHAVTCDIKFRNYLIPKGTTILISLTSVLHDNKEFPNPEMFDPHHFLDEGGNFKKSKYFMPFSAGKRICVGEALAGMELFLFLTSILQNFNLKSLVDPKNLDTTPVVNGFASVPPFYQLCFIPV
# T1 sequence (P32297 32-505): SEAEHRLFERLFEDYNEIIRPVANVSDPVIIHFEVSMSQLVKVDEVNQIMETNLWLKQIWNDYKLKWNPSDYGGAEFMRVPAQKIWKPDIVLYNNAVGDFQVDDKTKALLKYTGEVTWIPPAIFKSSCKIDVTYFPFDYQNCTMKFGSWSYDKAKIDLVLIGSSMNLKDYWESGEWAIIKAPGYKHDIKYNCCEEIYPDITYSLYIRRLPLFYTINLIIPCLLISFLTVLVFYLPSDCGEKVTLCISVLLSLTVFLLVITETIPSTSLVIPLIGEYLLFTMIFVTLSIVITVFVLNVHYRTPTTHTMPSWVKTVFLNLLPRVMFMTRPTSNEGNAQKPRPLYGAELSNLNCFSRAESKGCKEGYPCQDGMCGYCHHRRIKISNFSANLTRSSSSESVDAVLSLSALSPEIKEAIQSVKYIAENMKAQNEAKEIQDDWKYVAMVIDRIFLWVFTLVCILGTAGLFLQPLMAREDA
# T1 sequence (P30926 22-498): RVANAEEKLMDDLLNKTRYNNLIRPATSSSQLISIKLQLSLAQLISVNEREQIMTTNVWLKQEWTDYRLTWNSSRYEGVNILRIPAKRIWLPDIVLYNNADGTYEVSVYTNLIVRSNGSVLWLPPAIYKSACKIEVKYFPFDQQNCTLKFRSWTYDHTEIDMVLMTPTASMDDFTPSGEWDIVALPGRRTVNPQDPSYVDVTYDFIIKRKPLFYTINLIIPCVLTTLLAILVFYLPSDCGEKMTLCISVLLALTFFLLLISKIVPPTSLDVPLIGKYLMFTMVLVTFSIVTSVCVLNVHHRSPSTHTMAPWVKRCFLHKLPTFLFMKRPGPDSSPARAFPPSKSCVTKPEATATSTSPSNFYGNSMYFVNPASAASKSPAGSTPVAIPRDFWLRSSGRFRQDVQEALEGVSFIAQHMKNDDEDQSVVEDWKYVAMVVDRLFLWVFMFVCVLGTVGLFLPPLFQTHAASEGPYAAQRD
# Sequence of CYP3A4 (P08684 whole entry, species assumed): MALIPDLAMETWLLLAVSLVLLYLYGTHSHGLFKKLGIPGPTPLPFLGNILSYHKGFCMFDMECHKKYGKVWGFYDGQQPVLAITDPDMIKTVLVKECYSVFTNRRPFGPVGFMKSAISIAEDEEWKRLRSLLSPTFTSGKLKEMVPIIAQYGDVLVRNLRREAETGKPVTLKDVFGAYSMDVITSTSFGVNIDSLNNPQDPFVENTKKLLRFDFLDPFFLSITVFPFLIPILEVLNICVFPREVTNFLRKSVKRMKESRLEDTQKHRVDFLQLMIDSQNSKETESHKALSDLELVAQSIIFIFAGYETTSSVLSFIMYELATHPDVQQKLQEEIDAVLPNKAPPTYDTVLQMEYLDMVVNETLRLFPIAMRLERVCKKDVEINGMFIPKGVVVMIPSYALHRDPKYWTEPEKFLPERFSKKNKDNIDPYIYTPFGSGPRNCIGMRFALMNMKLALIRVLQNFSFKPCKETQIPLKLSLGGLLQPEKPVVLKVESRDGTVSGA
# Sequence of CYP2D6 (P10635 whole entry, species assumed): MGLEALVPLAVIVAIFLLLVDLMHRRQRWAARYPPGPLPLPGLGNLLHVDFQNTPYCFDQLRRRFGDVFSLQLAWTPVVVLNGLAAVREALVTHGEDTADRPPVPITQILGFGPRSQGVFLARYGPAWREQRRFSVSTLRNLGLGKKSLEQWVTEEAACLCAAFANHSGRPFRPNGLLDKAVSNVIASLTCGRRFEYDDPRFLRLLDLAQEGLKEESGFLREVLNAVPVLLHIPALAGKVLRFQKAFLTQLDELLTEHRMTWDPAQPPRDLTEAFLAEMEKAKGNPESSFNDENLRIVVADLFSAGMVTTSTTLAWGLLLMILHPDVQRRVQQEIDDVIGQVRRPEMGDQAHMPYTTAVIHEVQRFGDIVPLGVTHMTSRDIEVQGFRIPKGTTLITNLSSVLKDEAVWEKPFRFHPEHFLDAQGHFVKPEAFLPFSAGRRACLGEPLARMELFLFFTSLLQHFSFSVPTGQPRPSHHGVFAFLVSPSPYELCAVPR
# T2 sequence (Q05941 23-502): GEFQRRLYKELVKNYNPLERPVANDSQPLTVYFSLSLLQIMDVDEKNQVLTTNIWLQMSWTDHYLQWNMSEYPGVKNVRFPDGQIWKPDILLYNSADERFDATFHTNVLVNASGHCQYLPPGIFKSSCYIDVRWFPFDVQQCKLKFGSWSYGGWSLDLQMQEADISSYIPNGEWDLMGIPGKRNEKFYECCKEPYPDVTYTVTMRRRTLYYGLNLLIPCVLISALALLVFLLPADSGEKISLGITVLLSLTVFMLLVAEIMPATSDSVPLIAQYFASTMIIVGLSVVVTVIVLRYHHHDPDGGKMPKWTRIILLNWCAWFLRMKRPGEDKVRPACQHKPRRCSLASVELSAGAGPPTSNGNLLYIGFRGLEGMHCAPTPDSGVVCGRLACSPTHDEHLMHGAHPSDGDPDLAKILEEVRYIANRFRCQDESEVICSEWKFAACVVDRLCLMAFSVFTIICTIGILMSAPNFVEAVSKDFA
SMILES,EC50 [1],CYP2C9 % inhibition (CYP2C9),CYP2D6 % inhibition (CYP2D6),EC50 (rat-alpha7-nAChR; [2]),CYP3A4 % inhibition (CYP3A4),"EC50 (rat-alpha7-nAChR; assay validation with agonists, alpha7 nAChR in GH4C1 cells, concentration range 0.001 to 30 microM, read-out: EC50)"
Cn1cc(-c2ccc(NC(=O)NCCCCN3CCCCC3)cn2)cn1,> 30 µM,3%,1%,450 nM,−4%,–
Cn1cc(-c2ccc(NC(=O)NCCCCN3CCCCC3)cc2)cn1,5.04 µM,9%,45%,130 nM,68%,–
O=C(NCCCCN1CCCCC1)Nc1ccc(-c2ccccc2F)nc1,5.55 µM,−10%,14%,200 nM,−3%,–
O=C(NCCCCN1CCCCC1)Nc1ccc(-c2ccccc2F)cc1,1.5 µM,−1%,75%,190 nM,−17%,–
COc1ccc(F)c(-c2ccc(NC(=O)NCCCCN3CCCCC3)cn2)c1,4.34 µM,10%,18%,80 nM,43%,–
COc1ccc(F)c(-c2ccc(NC(=O)NCCCCN3CCCCC3)cc2)c1,2.32 µM,−26%,83%,100 nM,51%,–
COc1ccccc1-c1ccc(NC(=O)NCCCCN2CCCCC2)cn1,3.86 µM,6%,8%,260 nM,8%,–
COc1ccccc1-c1ccc(NC(=O)NCCCCN2CCCCC2)cc1,1.08 µM,−2%,38%,170 nM,5%,–
O=C(NCCCCN1CCCCC1)Nc1ccc(-c2cccs2)nc1,8.43 µM,2%,7%,100 nM,2%,–
O=C(NCCCCN1CCCCC1)Nc1ccc(-c2cccs2)cc1,3.56 µM,−5%,69%,190 nM,24%,–
O=C(NCCCCN1CCCCC1)Nc1ccc(-c2cccc(F)c2)nc1,–,0%,10%,180 nM,26%,–
O=C(NCCCCN1CCCCC1)Nc1ccc(-c2cccc(F)c2)cc1,1.78 µM,−12%,62%,110 nM,−21%,–
O=C(NCCCCN1CCCCC1)Nc1ccc(-c2cccnc2)nc1,9.88 µM,−3%,22%,590 nM,0%,–
O=C(NCCCCN1CCCCC1)Nc1ccc(-c2cccnc2)cc1,3.61 µM,−22%,72%,100 nM,2%,–
O=C(NCCCCN1CCCCC1)Nc1ccc(-c2ccc(F)cc2)nc1,9.53 µM,–,–,–,–,–
O=C(NCCCCN1CCCCC1)Nc1ccc(-c2ccc(F)cc2)cc1,1.73 µM,−16%,65%,220 nM,−13%,–
O=C(NCCCC[N+]1([O-])CCCCC1)Nc1ccc(-c2ccc(F)cc2)nc1,9.8 µM,–,–,460 nM,–,–
O=C(NCCCCN1CCCCC1)Nc1ccc(-c2ccc(F)nc2)nc1,–,−10%,8%,720 nM,−19%,–
O=C(NCCCCN1CCCCC1)Nc1ccc(-c2ccc(F)nc2)cc1,1.21 µM,−18%,21%,130 nM,−22%,–
COc1ccc(-c2ccc(NC(=O)NCCCCN3CCCCC3)cn2)cc1,4.12 µM,−15%,54%,260 nM,−8%,–
COc1ccc(-c2ccc(NC(=O)NCCCCN3CCCCC3)cc2)cc1,1.77 µM,−14%,97%,220 nM,32%,–
O=C(NCCCCN1CCCCC1)Nc1ccc(-c2ccc3c(c2)OCO3)nc1,–,6%,79%,140 nM,65%,–
O=C(NCCCCN1CCCCC1)Nc1ccc(-c2ccc3c(c2)OCO3)cc1,1.72 µM,0%,97%,100 nM,74%,–
O=C(NCCCCN1CCCCC1)Nc1ccc(-c2ccncc2)nc1,–,1%,12%,400 nM,−1%,–
O=C(NCCCCN1CCCCC1)Nc1ccc(-c2ccncc2)cc1,2.95 µM,6%,48%,180 nM,17%,–
O=C(NCCCCN1CCCCC1)Nc1ccc(-c2ccccc2)nc1,10.1 µM,−4%,6%,90 nM,−21%,–
O=C(NCCCCN1CCCCC1)Nc1ccc(-c2ccccc2)cc1,2.84 µM,2%,64%,310 nM,51%,–
"C[N+]1(C)CCN(c2ccccc2)CC1 [DMPP, reference compound]",–,–,–,–,–,980 ± 470 nM
COc1ncccc1-c1ccc(NC(=O)NCCCCN2CCCCC2)cn1 [drawing 62],15.7 µM,−12%,8%,–,−4%,–
COc1ncccc1-c1ccc(NC(=O)NCCCCN2CCCCC2)cn1 [drawing 63],5.67 µM,−36%,8%,–,−21%,–
